How the values were obtained:
[1] = tested on: HepG2; test: Anticancer activity against human HepG2 cells incubated for 24 hrs by SRB method; type: functional, cell-based; settings: HepG2, 24 h
[2] = tested on: MCF7; test: Anticancer activity against human MCF7 cells incubated for 24 hrs by SRB method; type: functional, cell-based; settings: MCF7, 24 h
[3] = tested on: HCT-116; test: Anticancer activity against human HCT-116 cells incubated for 24 hrs by SRB method; type: functional, cell-based; settings: HCT-116, 24 h
[4] = tested on: PANC-1; test: Growth inhibition of human PANC-1 cells; type: functional
[5] = tested on: NCI-H460; test: Growth inhibition of human NCI-H460 cells; type: functional
[6] = tested on: BXPC-3; test: Growth inhibition of human BXPC-3 cells; type: functional
[7] = tested on: MCF7; test: Antiproliferative activity against human MCF7 cells by SRB assay; type: functional, cell-based
[8] = tested on: DU-145; test: Antiproliferative activity against human DU-145 cells; type: functional, cell-based
[9] = tested on: HeLa; test: Anticancer activity against human HeLa cells by MTT assay; type: functional, cell-based; settings: pooled result: one value given for 4 cell lines, strains, targets or settings
[10] = Antiproliferative activity against human SUIT-2 cells; type: functional, cell-based
[11] = tested on: Panel NCI-60 (60 carcinoma cell lines); test: Antiproliferative activity against human Panel NCI-60 (60 carcinoma cell lines) cells; type: functional
[12] = Inhibition of cell migration of human SUIT-2 cells; type: functional, cell-based
[13] = tested on: UO-31; test: Antiproliferative activity against human UO-31 cells; type: functional
[14] = tested on: MCF7; test: Cytotoxicity against human MCF7 cells; type: functional, cell-based
[15] = tested on: HeLa; test: Antiproliferative activity against human HeLa cells measured after 48 hrs by CCK-8 method; type: functional, cell-based
[16] = tested on: HepG2; test: Potency index, ratio of doxorubicin IC50 to compound IC50 for anticancer activity against human HepG2 cells; type: functional
[17] = tested on: MCF7; test: Potency index, ratio of doxorubicin IC50 to compound IC50 for anticancer activity against human MCF7 cells; type: functional
[18] = tested on: HCT-116; test: Potency index, ratio of doxorubicin IC50 to compound IC50 for anticancer activity against human HCT-116 cells; type: functional
[19] = tested on: A549; test: Cytotoxicity against human A549 cells; type: functional, cell-based
[20] = Resistance factor, ratio of IC50 for human K562/VCR cells to IC50 for K562 cells; type: functional; settings: time 72 hrs
[21] = tested on: MCF7; test: Cytotoxicity against human MCF7 cells assessed as reduction in cell growth measured after 2 days by MTT assay; type: functional, cell-based; settings: MCF7, 48 h
[22] = tested on: HepG2; test: Cytotoxicity against human HepG2 cells; type: functional, cell-based
[23] = tested on: HCT-116; test: Cytotoxicity against human HCT-116 cells; type: functional, cell-based
[24] = tested on: HeLa; test: Antiproliferative activity against human HeLa cells measured after 48 hrs by MTT assay; type: functional, cell-based
[25] = tested on: HepG2; test: Antiproliferative activity against human HepG2 cells measured after 48 hrs by MTT assay; type: functional, cell-based; settings: HepG2, 48 h
[26] = tested on: MCF7; test: Antiproliferative activity against human MCF7 cells measured after 48 hrs by MTT assay; type: functional, cell-based; settings: MCF7, 48 h
[27] = molecular target: Histone deacetylase 4 (Homo sapiens, UniProt P56524); test: Inhibition of human recombinant HDAC4 using Boc-Lys(Ac)-AMC as substrate preincubated for 15 mins followed by substrate addition and measured after 60 mins by fluorescence based analysis
[28] = molecular target: Bromodomain-containing protein 4 (Homo sapiens) (UniProt O60885); test: Inhibition of GST tagged BRD4 (unknown origin) at 10 uM by HTRF assay relative to control
[29] = tested on: THP-1; test: Antiproliferative activity against human THP-1 cells incubated for 24 hrs by trypan blue reagent based analysis; type: functional, cell-based; settings: THP-1, 24 h
[30] = tested on: HCT-15; test: Antiproliferative activity against human HCT-15 cells; type: functional, cell-based
[31] = tested on: HeLa; test: Cytotoxicity against human HeLa cells; type: functional, cell-based
[32] = tested on: A549; test: Cytotoxicity against human A549 cells assessed as reduction in cell growth; type: functional, cell-based
[33] = molecular target: Tubulin; test: Inhibition of tubulin polymerization (unknown origin); type: protein-complex assay, Homo sapiens
[34] = tested on: MCF7; test: Antiproliferative activity against human MCF7 cells; type: functional, cell-based
[35] = Cytotoxicity against human Triple-negative breast cancer cells; type: functional, cell-based; settings: Triple-negative breast cancer cell
[36] = tested on: A549; test: Antitumor activity against human A549 cells xenografted in mouse model assessed as tumor growth inhibition relative to control; type: functional; design: scale not given: the % may be the effect or the level left
[37] = tested on: MDA-MB-231; test: Cytotoxicity against human MDA-MB-231 cells measured after 72 hrs; type: functional, cell-based; settings: MDA-MB-231, 72 h

Chain of Histone deacetylase 4 (P56524 whole entry): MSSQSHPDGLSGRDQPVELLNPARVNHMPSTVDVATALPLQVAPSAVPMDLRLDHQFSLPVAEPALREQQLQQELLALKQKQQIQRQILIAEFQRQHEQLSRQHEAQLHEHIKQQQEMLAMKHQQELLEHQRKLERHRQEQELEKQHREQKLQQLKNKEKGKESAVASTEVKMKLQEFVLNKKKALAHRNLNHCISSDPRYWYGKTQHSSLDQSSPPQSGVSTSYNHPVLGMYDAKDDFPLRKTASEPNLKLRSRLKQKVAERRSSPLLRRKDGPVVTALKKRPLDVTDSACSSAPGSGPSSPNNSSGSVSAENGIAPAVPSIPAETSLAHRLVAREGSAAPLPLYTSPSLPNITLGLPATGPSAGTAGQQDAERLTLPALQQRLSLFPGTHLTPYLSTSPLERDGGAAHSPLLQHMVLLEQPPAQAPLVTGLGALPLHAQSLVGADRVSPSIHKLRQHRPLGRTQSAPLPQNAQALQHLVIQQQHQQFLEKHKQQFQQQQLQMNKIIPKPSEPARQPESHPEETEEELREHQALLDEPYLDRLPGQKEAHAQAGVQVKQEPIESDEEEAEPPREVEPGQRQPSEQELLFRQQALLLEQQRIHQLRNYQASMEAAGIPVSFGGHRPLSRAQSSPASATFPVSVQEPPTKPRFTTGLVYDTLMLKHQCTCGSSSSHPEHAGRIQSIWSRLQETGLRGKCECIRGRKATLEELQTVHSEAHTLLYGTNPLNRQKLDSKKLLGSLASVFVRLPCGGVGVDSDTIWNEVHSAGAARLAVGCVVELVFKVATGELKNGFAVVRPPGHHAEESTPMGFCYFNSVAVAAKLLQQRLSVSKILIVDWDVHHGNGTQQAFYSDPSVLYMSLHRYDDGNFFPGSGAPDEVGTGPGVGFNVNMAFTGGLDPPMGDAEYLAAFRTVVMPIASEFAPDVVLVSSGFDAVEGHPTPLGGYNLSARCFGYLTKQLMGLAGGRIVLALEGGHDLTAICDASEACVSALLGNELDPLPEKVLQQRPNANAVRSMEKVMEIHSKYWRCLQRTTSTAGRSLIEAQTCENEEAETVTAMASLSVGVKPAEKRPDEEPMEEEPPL

SMILES: CC(=O)Nc1cccc(C(=O)/C=C2\C(=O)Nc3ccc(S(=O)(=O)N4CCOCC4)cc32)c1
- IC50 [1]: < 10 µM
- IC50 [2]: < 10 µM
- IC50 [3]: < 10 µM

SMILES: C[C@H]1NC(=O)[C@@H](Cc2c[nH]c3ccccc23)n2c1nc1ccccc1c2=O [FUMIQUINAZOLINE G]
- GI50 [4]: 7.62 µM
- GI50 [5]: 7.62 µM
- GI50 [6]: 7.62 µM

SMILES: COC(=O)c1ccc(C(=O)/C=C2\C(=O)Nc3ccc(S(=O)(=O)N4CCOCC4)cc32)cc1
- IC50 [1]: < 10 µM
- IC50 [2]: < 10 µM
- IC50 [3]: < 10 µM

SMILES: O=C(Cc1c[nH]c2ncccc12)N/N=C/c1cn(Cc2ccc(Cl)cc2Cl)c2ccccc12
- IC50 [7]: 22.3 µM

SMILES: O=C(O)C1=C2C(=Nc3ccc(S(=O)(=O)N4CCOCC4)cc32)NC1=O
- IC50 [1]: < 10 µM
- IC50 [2]: < 10 µM
- IC50 [3]: < 10 µM

SMILES: COc1cc([C@@H]2c3cc4c(cc3[C@@H](O[C@@H]3O[C@@H]5CO[C@@H](C)O[C@H]5[C@H](O)[C@H]3O)[C@H]3COC(=O)[C@H]23)OCO4)cc(OC)c1O [ETOPOSIDE]
- IC50 [8]: 9.8 µM

SMILES: O=C(Cc1c[nH]c2ncccc12)N/N=C/c1cn(Cc2ccc(Cl)cc2Cl)c2ccc(Br)cc12
- IC50 [7]: 22.3 µM

SMILES: CC(C)(C)OC(=O)N1CCC2C(C1)c1cc(Br)ccc1N2S(=O)(=O)c1ccc(Cl)cc1 (configuration not stated)
- IC50 [9]: 9.42 µM

SMILES: COc1ccc(OC)c(-c2cn3nc(-c4c[nH]c5ccc(Br)cc45)sc3n2)c1
- IC50 [10]: < 10 µM
- GI50 [11]: 10.3 µM
- IC50 [12]: < 10 µM
- GI50 [13]: 1.67 µM

SMILES: O=C(Nc1ccc(Br)cc1)c1coc(-c2c[nH]c3cccnc23)n1
- IC50 [14]: 0.36 µM

SMILES: COc1cc(/C=C/c2ncc([N+](=O)[O-])n2CCOC(=O)c2c[nH]c3ccccc23)cc(OC)c1OC
- IC50 [15]: 0.015 µM

SMILES: N=c1nc(-c2cn(S(=O)(=O)c3ccccc3)c3ccccc23)cc(-c2cccc(O)c2)[nH]1
- Ratio IC50 [16]: >8
- Ratio IC50 [17]: >8
- Ratio IC50 [18]: >8

SMILES: CNC(=S)N/N=C/c1c(-c2ccc(OC)cc2)[nH]c2ccccc12
- IC50 [19]: 12.5 µM
- Ratio IC50 [20]: 2.27

SMILES: CS(=O)(=O)n1cc(-c2cc(-c3cccc(O)c3)[nH]c(=N)n2)c2ccccc21
- Ratio IC50 [16]: >8
- Ratio IC50 [17]: >8
- Ratio IC50 [18]: >8

SMILES: Nc1ccccc1Oc1cccc(C(c2c[nH]c3ccc(Cl)cc23)c2c[nH]c3ccc(Cl)cc23)c1
- IC50 [21]: 34.8 µM

SMILES: Cn1cc(C2=C(C#N)C(c3ccc(Cl)cc3)c3c(nc(N)[nH]c3=O)N2)c2ccccc21 (configuration not stated)
- IC50 [22]: 3.57 µM

SMILES: Cn1cc(-c2nc(-c3cn(C)c4ncc(Cl)cc34)no2)c2cc(Br)ccc21
- IC50 [23]: 1.93 µM

SMILES: CS(=O)(=O)n1cc(-c2cc(-c3cccc(O)c3)[nH]c(=S)n2)c2ccccc21
- Ratio IC50 [16]: >8
- Ratio IC50 [17]: >8
- Ratio IC50 [18]: >8

SMILES: COc1ccc2c(c1)c(/C=N/NC(=O)Cc1c[nH]c3ncccc13)cn2Cc1ccc(Br)cc1
- IC50 [7]: 22.3 µM

SMILES: N#CC(C#N)=C1C(=O)Nc2ccc(S(=O)(=O)N3CCOCC3)cc21
- IC50 [1]: < 10 µM
- IC50 [2]: < 10 µM
- IC50 [3]: < 10 µM

SMILES: COc1cc([C@@H]2c3cc4c(cc3[C@H](OC(=O)Cc3ccc5cc[nH]c5c3)[C@H]3COC(=O)[C@H]23)OCO4)cc(OC)c1OC
- Ratio IC50 [20]: 2.27

SMILES: Nc1c(C(=O)c2cccc3ccccc23)[nH]c2ncccc12
- IC50 [24]: 3.7 µM
- IC50 [25]: 8 µM
- IC50 [26]: 19.9 µM

SMILES: O=C(Nc1cc([N+](=O)[O-])cc([N+](=O)[O-])c1)c1coc(-c2c[nH]c3cccnc23)n1
- IC50 [14]: 0.034 µM

SMILES: Cc1noc(C)c1-c1ccc2c(c1)c(Cc1ccc(F)cc1)cn2CCCCCCCC(=O)NO
- IC50 [27]: 0.005 µM
- inhibition [28]: 88%
- IC50 [29]: 15.5 µM

SMILES: COc1ccc(CC/N=C2\NC(=O)/C(=C/c3c[nH]c4ccc(Br)cc34)S2)cc1
- IC50 [30]: 0.92 µM

SMILES: CCOC(=O)/C(C#N)=C1/C(=O)Nc2ccc(S(=O)(=O)N3CCOCC3)cc21
- IC50 [1]: < 10 µM
- IC50 [2]: < 10 µM
- IC50 [3]: < 10 µM

SMILES: COc1cnc2c(c1)c(-c1noc(-c3cn(C)c4ccc(Br)cc34)n1)cn2C
- IC50 [23]: 3.55 µM

SMILES: COc1cc(C(c2c[nH]c3ccccc23)c2c[nH]c3ccccc23)cc(Cl)c1O
- IC50 [31]: 0.37 µM
- IC50 [32]: 0.34 µM

SMILES: CS(=O)(=O)n1cc(-c2cc(-c3cccc(O)c3)[nH]c(=O)n2)c2ccccc21
- Ratio IC50 [16]: >8
- Ratio IC50 [17]: >8
- Ratio IC50 [18]: >8

SMILES: O=C(c1nnc(Nc2ccccc2F)o1)c1c[nH]c2ccccc12
- IC50 [33]: 3.89 µM
- IC50 [34]: 2.42 µM

SMILES: COc1ccc2c(c1)c(/C=N/NC(=O)Cc1c[nH]c3ncccc13)cn2Cc1ccc(F)cc1F
- IC50 [7]: 22.3 µM

SMILES: COc1ccc(OC)c(-c2cn3nc(-c4cn(C)c5ccc(Br)cc45)sc3n2)c1
- IC50 [10]: < 10 µM
- IC50 [12]: < 10 µM

SMILES: N#Cc1ccc(Cn2cc(/C=N/NC(=O)Cc3c[nH]c4ncccc34)c3cc(Br)ccc32)cc1
- IC50 [7]: 22.3 µM

SMILES: O=c1nc(-c2cn(S(=O)(=O)c3ccccc3)c3ccccc23)cc(-c2cccc(O)c2)[nH]1
- Ratio IC50 [16]: >8
- Ratio IC50 [17]: >8
- Ratio IC50 [18]: >8

SMILES: Cc1cccc2c(C(c3ccc(O)cc3)c3c[nH]c4c(C)cccc34)c[nH]c12
- IC50 [35]: 10 µM

SMILES: COc1cccc2c1C(=O)c1c(O)c3c(c(O)c1C2=O)C[C@@](O)(C(=O)CO)C[C@@H]3O[C@H]1C[C@H](N)[C@H](O)[C@H](C)O1 [DOXORUBICIN]
- Activity [36]: 53.3%

SMILES: CCCCCc1cc2cc(C)cc(/N=C/c3[nH]c(C)c(CCCCC)c3C)c2[nH]1
- IC50 [37]: 4.2 µM

SMILES: COc1cc2cc(C(=O)N3CCC=C(Cl)C3=O)n(C)c2c(OC)c1OC
- Activity [36]: 54.6%

SMILES: Nc1ccccc1Oc1cccc(C(c2c[nH]c3ccccc23)c2c[nH]c3ccccc23)c1
- IC50 [21]: 23.6 µM

— ChEMBL document CHEMBL5230093, “The importance of indole and azaindole scaffold in the development of antitumor agents” (Eur J Med Chem, 2020)
